# Laboratory results as given in patent US5739123A, “Phosphinic acid derivatives with metallopeptidase inhibitory activity” (Zambon Group S.p.A., priority 1994, dated 1998).
# Counter-ions that a name gives are not always drawn.
# How the values were obtained:
# [1] = test system: thermolysin; conditions: J. Am. Chem. Soc. 1991, 113, 297-307; cited from earlier work
# [2] = biological target: T1, NEP (Rattus norvegicus, UniProt P07861); experiment: NEP-inhibitory activity, in vitro (kidney cortex membranes, [3H][Leu5]-enkephaline substrate); type: biochemical, male Sprague-Dawley rats; conditions: rat kidney cortex membranes 5 μg/ml of proteins; [3H][Leu5]-enkephaline 15 nM; pH 7.4; 20 minutes at 30° C.; tested as lithium or sodium salts
# T1 construct: Membranes from kidney cortex were prepared; from tissue; host or cells: kidney cortex membranes of male Sprague-Dawley rats
# T1 sequence (P07861 1-750): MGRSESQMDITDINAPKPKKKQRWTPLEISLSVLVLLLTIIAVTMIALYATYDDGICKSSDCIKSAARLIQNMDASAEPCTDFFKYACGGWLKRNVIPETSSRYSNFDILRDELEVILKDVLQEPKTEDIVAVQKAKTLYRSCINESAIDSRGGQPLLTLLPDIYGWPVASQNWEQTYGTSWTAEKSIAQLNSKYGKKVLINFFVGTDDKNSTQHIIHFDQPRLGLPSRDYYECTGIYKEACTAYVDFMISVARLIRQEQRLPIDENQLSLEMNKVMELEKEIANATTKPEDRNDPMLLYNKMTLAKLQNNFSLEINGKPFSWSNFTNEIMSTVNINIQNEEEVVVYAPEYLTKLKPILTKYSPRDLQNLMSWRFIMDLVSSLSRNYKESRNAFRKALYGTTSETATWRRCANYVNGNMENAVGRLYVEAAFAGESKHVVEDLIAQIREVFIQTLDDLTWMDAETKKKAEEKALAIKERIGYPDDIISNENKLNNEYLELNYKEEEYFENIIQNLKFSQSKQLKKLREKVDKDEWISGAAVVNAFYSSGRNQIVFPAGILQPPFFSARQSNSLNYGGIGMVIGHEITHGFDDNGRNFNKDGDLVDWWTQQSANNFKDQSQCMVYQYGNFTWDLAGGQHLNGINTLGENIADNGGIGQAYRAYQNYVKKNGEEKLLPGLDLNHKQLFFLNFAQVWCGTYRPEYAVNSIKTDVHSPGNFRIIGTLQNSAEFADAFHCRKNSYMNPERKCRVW
# Procedure: The NEP-inhibitory activity was evaluated according to the method reported in the literature by C. Llorens et al., in Eur. J. Pharmacol., 69, (1981), 113-116.
# Membranes from kidney cortex were prepared according to the following procedure.
# By working at 0°-4° C., kidneys were removed from male Sprague-Dawley rats weighing approximately 300 g.
# Cortex was carefully dissected, finely minced and suspended in a homogenization buffer (10 mM sodium phosphate pH 7.4 containing 1 mM MgCl2, 30 mM NaCl, 0.02% NAN3) 1:15 weight/volume.
# The tissue was then homogenized for 30 seconds using an Ultra-Turrax homogenizer.
# Approximately 10 ml of homogenate were layered over 10 ml of sucrose (41% weight/volume) and centrifuged at 31200 rpm for 30 minutes at 4° C. in a fixed angle rotor.
# The membranes were collected from the buffer/sucrose interface, washed twice with 50 mM TRIS/HCl buffer (pH 7.4) and resuspended into the same buffer for storage.
# The membranes were stored in small aliquots at -80° C. until use. The NEP-inhibitory activity was evaluated by using the following method.
# Aliquots of the membrane suspension prepared as above described (concentration 5 μg/ml of proteins) were preincubated in the presence of an aminopeptidase inhibitor (Bestatin--1 mM) for 10 minutes at 30° C.
# [^3 H][Leu^5 ]-enkephaline (15 nM) and buffer TRIS/HCl pH 7.4 (50 mM) were added in order to obtain a final volume of 100 μl. Incubation (20 minutes at 30° C.) was stopped by adding HCl 0.1M (100 μl).
# The formation of the metabolite [^3 H]Tyr-Gly-Gly was quantified by chromatography on polystyrene columns (Porapak Q). The percentage of inhibition of the metabolite formation in the membrane preparations treated with the compounds of formula I, in comparison to the untreated membrane preparations, was expressed as IC50 value (nM).
# (§1) The compounds of formula I were tested in the form of lithium or sodium salts.
# [3] = biological target: T2, ACE (Oryctolagus cuniculus, UniProt P12822); experiment: ACE-inhibitory activity, in vitro (FAPGG substrate); type: biochemical; conditions: ACE purified from lung rabbit; FAPGG 0.8 mM; 37° C.; 340 nm, 5 minutes; tested as lithium or sodium salts
# T2 construct: purchased SIGMA; host or cells: rabbit lung (purified)
# T2 sequence (P12822 34-1310): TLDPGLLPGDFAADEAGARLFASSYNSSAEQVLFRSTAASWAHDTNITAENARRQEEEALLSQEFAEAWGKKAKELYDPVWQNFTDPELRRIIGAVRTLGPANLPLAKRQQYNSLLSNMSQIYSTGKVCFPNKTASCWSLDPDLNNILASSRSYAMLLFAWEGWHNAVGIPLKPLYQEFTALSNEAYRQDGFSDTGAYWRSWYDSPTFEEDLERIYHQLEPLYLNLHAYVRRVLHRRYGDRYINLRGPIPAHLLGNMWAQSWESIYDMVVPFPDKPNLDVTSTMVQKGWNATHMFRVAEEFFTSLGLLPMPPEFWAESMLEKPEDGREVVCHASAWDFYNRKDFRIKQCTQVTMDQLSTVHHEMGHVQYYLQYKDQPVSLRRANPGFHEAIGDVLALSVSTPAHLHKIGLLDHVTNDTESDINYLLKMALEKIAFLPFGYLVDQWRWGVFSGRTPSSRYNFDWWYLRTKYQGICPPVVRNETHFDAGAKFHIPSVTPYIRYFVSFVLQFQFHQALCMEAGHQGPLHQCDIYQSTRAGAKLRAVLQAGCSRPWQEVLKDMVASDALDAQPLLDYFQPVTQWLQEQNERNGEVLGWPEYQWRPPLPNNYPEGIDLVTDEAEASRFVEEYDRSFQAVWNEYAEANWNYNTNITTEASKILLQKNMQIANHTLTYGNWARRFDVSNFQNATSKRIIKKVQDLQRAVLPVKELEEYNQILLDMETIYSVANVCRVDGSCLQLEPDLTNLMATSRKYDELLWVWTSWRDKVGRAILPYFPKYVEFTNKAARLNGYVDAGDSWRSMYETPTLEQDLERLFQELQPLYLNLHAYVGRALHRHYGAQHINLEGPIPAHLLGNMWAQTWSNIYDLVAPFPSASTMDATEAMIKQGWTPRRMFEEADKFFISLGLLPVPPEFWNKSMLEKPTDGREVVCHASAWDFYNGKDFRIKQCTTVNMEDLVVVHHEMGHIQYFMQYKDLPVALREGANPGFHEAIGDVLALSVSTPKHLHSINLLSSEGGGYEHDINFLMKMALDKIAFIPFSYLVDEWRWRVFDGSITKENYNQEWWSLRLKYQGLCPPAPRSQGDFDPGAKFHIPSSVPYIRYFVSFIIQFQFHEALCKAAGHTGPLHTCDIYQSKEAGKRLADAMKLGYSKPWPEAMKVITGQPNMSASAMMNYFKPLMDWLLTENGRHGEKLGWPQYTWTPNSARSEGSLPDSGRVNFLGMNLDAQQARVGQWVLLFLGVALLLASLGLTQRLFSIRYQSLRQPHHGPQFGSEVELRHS
# Procedure: The ACE-inhibitory activity was evaluated according to the method reported in the literature by B. Holmquist et al., in Analytical Biochemistry 95, 540-548 (1979).
# […] of ACE (250 mU/ml purified by lung rabbit, EC 3.4.15.1 SIGMA) with 50 μl of the compound of formula I were preincubated in thermostated cuvettes at 37° C.
# The reaction was started by adding furylacryloylphenylalanylglycylglycine 0.8 mM (FAPGG-SIGMA).
# Contemporaneously, by using a Beckman DU-50 spectrophotometer provided with a program for calculating delta A/minutes and regression coefficients of the enzyme kinetics curves, the absorbance at 340 nm was recorded in continuo for 5 minutes.
# The percentage of the enzyme inhibition in the preparations treated with the compounds of formula I with respect to the untreated preparations was expressed as IC50 value (nM).
# as §1
SMILES,IC50 [2] [nM],IC50 [3] [nM],inhibitory activity towards thermolysin (in words) [1]
CC(C)CC(CP(=O)(O)CNC(=O)OCc1ccccc1)C(=O)NC(Cc1ccccc1)C(=O)O (stereo not drawn),–,–,endowed with inhibitory activity towards thermolysin
"CC(C)CC(CP(=O)(O)CCCc1ccccc1)C(=O)N[C@@H](Cc1ccc(-c2ccccc2)cc1)C(=O)O (stereo partly drawn) [Compound 1, N-[3-[(3-phenylpropyl)(hydroxy)phosphinyl]-2-isobutyl-propionyl]-(1,1'-biphenyl-4-yl)-L-alanine dilithium salt]",368,70,–

# Further lines, with some results ahead:
IC50 [2] [nM],IC50 [3] [nM],SMILES,inhibitory activity towards thermolysin (in words) [1]
220,24,"CC(C)CC(CP(=O)(O)CCCCc1ccccc1)C(=O)N[C@@H](Cc1ccc(-c2ccccc2)cc1)C(=O)O (stereo partly drawn) [Compound 2, N-[3-[(4-phenylbutyl)(hydroxy)phosphinyl]-2-isobutyl-propionyl]-(1,1'-biphenyl-4-yl)-L-alanine disodium salt]",–
7.7,4.6,"CC(C)CC(CP(=O)(O)CNC(=O)c1ccccc1)C(=O)N[C@@H](Cc1ccc(-c2ccccc2)cc1)C(=O)O (stereo partly drawn) [Compound 6, N-[3-[(benzoylaminomethyl)(hydroxy)phosphinyl]-2-isobutyl-propionyl]-(1,1'-biphenyl-4-yl)-L-alanine]",–
30.1,183,"CC(C)CC(CP(=O)(O)CNC(=O)Cc1ccccc1)C(=O)N[C@@H](Cc1ccc(-c2ccccc2)cc1)C(=O)O (stereo partly drawn) [Compound 7, N-[3-[(phenylacetylaminomethyl)(hydroxy)phosphinyl]-2-isobutyl-propionyl]-(1,1'-biphenyl-4-yl)-L-alanine]",–
